Assay results reported in US20250353855A1, “HETEROCYCLIC AND HETEROARYL COMPOUNDS FOR TREATING HUNTINGTON'S DISEASE” (PTC THERAPEUTICS, INC., priority 2022, published 2025).

Each compound was assayed on Endogenous Huntingtin Protein (assay: Endogenous Huntingtin Protein Assay (ELISA-based MSD electrochemiluminescence)). Conditions: MSD plates coated with MW1 (expanded polyglutamine) or MAB2166 capture antibody; lysates.
Format: cell-based
Method: Compounds of Formula (T) were tested using the Meso Scale Discovery (MSD) Assay provided in International Application No. PCT/US2016/066042, filed on Dec. 11, 2016 and claiming priority to U.S. Provisional Application 62/265,652 filed on Dec. 10, 2015, the entire contents of which are incorporated herein by reference.
The Endogenous Huntingtin Protein assay used in Example 1 was developed using the ELISA-based MSD electrochemiluminescence assay platform.
Meso Scale Discovery (MSD) 96-well or 384-well plates were coated overnight at 4° C. with MW1 (expanded polyglutamine) or MAB2166 monoclonal antibody (for capture) at a concentration of 1 μg/mL in PBS (30 μL per well). Plates were then washed three times with 300 μL wash buffer (0.05% Tween-20 in PBS) and blocked (100 μL blocking buffer; 5% BSA in PBS) for 4-5 hours at room temperature with rotational shaking and then washed three times with wash buffer.
Samples (25 μL) were transferred to the antibody-coated MSD plate and incubated overnight at 4° C. After removal of the lysates, the plate was washed three times with wash buffer, and 25 μL of #5656S (Cell signaling; rabbit monoclonal) secondary antibody (diluted to 0.25 μg/mL in 0.05% Tween-20 in blocking buffer) was added to each well and incubated with shaking for 1 Hour at room temperature. Following incubation with the secondary antibody, the wells were rinsed with wash buffer after which 25 μL of goat anti-rabbit SULFO TAG secondary detection antibody (required aspect of the MSD system) (diluted to 0.25 μg/mL in 0.05% Tween-20 in blocking buffer) was added to each well and incubated with shaking for 1 hour at room temperature. After rinsing three times with wash buffer, 150 μL of read buffer T with surfactant (MSD) were added to each empty well, and the plate was imaged on a SI 6000 imager (MSD) according to manufacturers' instructions provided for 96- or 384-well plates.

Compound | IC50 [nM]
COc1nc2cc(O)c(-c3cc4ccn([C@H]5CC(C)(C)NC(C)(C)[C@H]5F)c4nn3)cc2o1 [Cpd 25, 6-{7-[(3S,4S)-3-fluoro-2,2,6,6-tetramethylpiperidin-4-yl]-7H-pyrrolo[2,3-c]pyridazin-3-yl}-2-methoxy-1,3-benzoxazol-5-ol] | < 100

Same assay, conditions: MSD plates coated with MW1 (expanded polyglutamine) or MAB2166 capture antibody; lysates; read-out: IC50

Compound | IC50 [nM]
CO/N=C1/CCc2cc(-c3cc4c(nn3)N([C@H]3CCNC5(CC5)C3)CC4)c(O)cc21 [Cpd 60, (3Z)-6-{7-[(7S)-4-azaspiro[2.5]octan-7-yl]-6,7-dihydro-5H-pyrrolo[2,3-c]pyridazin-3-yl}-3-(methoxyimino)-2,3-dihydro-1H-inden-5-ol] | 500 to 1000
Cc1nc2cc(-c3cc4ncn([C@H]5CC(C)(C)NC6(CC6)C5)c4nn3)c(O)cc2o1 [Cpd 23, 5-{7-[(7S)-5,5-dimethyl-4-azaspiro[2.5]octan-7-yl]-7H-imidazo[4,5-c]pyridazin-3-yl}-2-methyl-1,3-benzoxazol-6-ol] | 100 to 500
O=C1CCc2cc(-c3cc4c(nn3)N([C@H]3CCNC5(CC5)C3)CC4)c(O)cc21 [Cpd 57, 5-{7-[(7S)-4-azaspiro[2.5]octan-7-yl]-6,7-dihydro-5H-pyrrolo[2,3-c]pyridazin-3-yl}-6-hydroxy-2,3-dihydro-1H-inden-1-one] | 100 to 500
Cn1nnc2cc(O)c(-c3cc4ccn([C@H]5CC(C)(C)NC(C)(C)[C@H]5F)c4nn3)cc21 [Cpd 42, 6-{7-[(3S,4S)-3-fluoro-2,2,6,6-tetramethylpiperidin-4-yl]-7H-pyrrolo[2,3-c]pyridazin-3-yl}-1-methyl-1H-benzotriazol-5-ol] | < 100
Cn1nnc2cc(-c3cc4ccn([C@H]5CC(C)(C)NC(C)(C)[C@H]5F)c4nn3)c(O)cc21 [Cpd 41, 5-{7-[(3S,4S)-3-fluoro-2,2,6,6-tetramethylpiperidin-4-yl]-7H-pyrrolo[2,3-c]pyridazin-3-yl}-1-methyl-1H-benzotriazol-6-ol] | < 100
Cc1nc2cc(-c3cc4c(nn3)N([C@H]3CC(C)(C)NC(C)(C)[C@H]3F)CC4)c(O)cc2n1C [Cpd 48, 5-{7-[(3S,4S)-3-fluoro-2,2,6,6-tetramethylpiperidin-4-yl]-6,7-dihydro-5H-pyrrolo[2,3-c]pyridazin-3-yl}-1,2-dimethyl-1H-benzimidazol-6-ol] | < 100
Cn1nnc2cc(-c3cc4nnn(C5CC(C)(C)NC6(CC6)C5)c4nn3)c(O)cc21 (racemic) [Cpd 7, 5-[rac-3-(5,5-dimethyl-4-azaspiro[2.5]octan-7-yl)-3H-[1,2,3]triazolo[4,5-c]pyridazin-6-yl]-1-methyl-1H-benzotriazol-6-ol] | 500 to 1000
Cc1cnc2cc(O)c(-c3cc4ccn([C@H]5CC(C)(C)NC(C)(C)[C@H]5F)c4nn3)cc2c1 [Cpd 35, 6-{7-[(3S,4S)-3-fluoro-2,2,6,6-tetramethylpiperidin-4-yl]-7H-pyrrolo[2,3-c]pyridazin-3-yl}-3-methylquinolin-7-ol] | < 100
Cc1nc2cc(O)c(-c3cc4nnn(C5CC(C)(C)NC6(CC6)C5)c4nn3)cc2s1 (stereo not drawn) [Cpd 12, 6-[3-(5,5-dimethyl-4-azaspiro[2.5]octan-7-yl)-3H-[1,2,3]triazolo[4,5-c]pyridazin-6-yl]-2-methyl-1,3-benzothiazol-5-ol] | < 100
CC1(C)CC(n2nnc3cc(-c4cc5cccnc5cc4O)nnc32)CC(C)(C)N1 [Cpd 2, 6-[3-(2,2,6,6-tetramethylpiperidin-4-yl)-3H-[1,2,3]triazolo[4,5-c]pyridazin-6-yl]quinolin-7-ol] | 1000 to 3000
Cn1cc2cc(-c3cc4c(nn3)N([C@H]3CC(C)(C)NC(C)(C)[C@H]3F)CC4)c(O)c(F)c2n1 [Cpd 101, 7-fluoro-5-{7-[(3S,4S)-3-fluoro-2,2,6,6-tetramethylpiperidin-4-yl]-6,7-dihydro-5H-pyrrolo[2,3-c]pyridazin-3-yl}-2-methyl-2H-indazol-6-ol] | < 100
Cc1nc2cc(O)c(-c3cc4c(nn3)N(C3CC5(CC5)NC5(CC5)C3)CC4)cc2s1 (stereo not drawn) [Cpd 71, 6-[7-(4-azadispiro[2.1.25.33]decan-9-yl)-6,7-dihydro-5H-pyrrolo[2,3-c]pyridazin-3-yl]-2-methyl-1,3-benzothiazol-5-ol] | < 100
Cn1c(=O)cnc2cc(-c3cc4ccn([C@H]5CC(C)(C)NC(C)(C)[C@H]5F)c4nn3)c(O)cc21 [Cpd 26, 6-{7-[(3S,4S)-3-fluoro-2,2,6,6-tetramethylpiperidin-4-yl]-7H-pyrrolo[2,3-c]pyridazin-3-yl}-7-hydroxy-1-methylquinoxalin-2(1H)-one] | < 100
Cc1ccc2cc(O)c(-c3cc4c(nn3)N([C@H]3CC(C)(C)NC(C)(C)[C@H]3F)CC4)cc2n1 [Cpd 77, 7-{7-[(3S,4S)-3-fluoro-2,2,6,6-tetramethylpiperidin-4-yl]-6,7-dihydro-5H-pyrrolo[2,3-c]pyridazin-3-yl}-2-methylquinolin-6-ol] | < 100
CC1(C)C[C@H](N2CCc3cc(-c4cc5cnccc5cc4O)nnc32)[C@H](F)C(C)(C)N1 [Cpd 54, 7-{7-[(3S,4S)-3-fluoro-2,2,6,6-tetramethylpiperidin-4-yl]-6,7-dihydro-5H-pyrrolo[2,3-c]pyridazin-3-yl}isoquinolin-6-ol] | < 100
Cn1nnc2cc(-c3cc4c(nn3)N([C@H]3CC(C)(C)NC(C)(C)[C@H]3F)CC4)c(O)cc21 [Cpd 50, 5-{7-[(3S,4S)-3-fluoro-2,2,6,6-tetramethylpiperidin-4-yl]-6,7-dihydro-5H-pyrrolo[2,3-c]pyridazin-3-yl}-1-methyl-1H-benzotriazol-6-ol] | < 100

Other lines, results leading:

IC50 [nM] | Compound
< 100 | Cc1cnc2cc(-c3cc4c(nn3)N([C@H]3CC(C)(C)NC(C)(C)[C@H]3F)CC4)c(O)cc2c1 [Cpd 75, 7-{7-[(3S,4S)-3-fluoro-2,2,6,6-tetramethylpiperidin-4-yl]-6,7-dihydro-5H-pyrrolo[2,3-c]pyridazin-3-yl}-3-methylquinolin-6-ol]
< 100 | Cc1nc2cc(O)c(-c3cc4c(nn3)N([C@H]3C[C@@H]5CC[C@@H](N5)[C@H]3F)CC4)cc2s1 (single isomer, unassigned) [Cpd 58, 6-{7-[(1R,2R,3S,5S)-2-fluoro-8-azabicyclo[3.2.1]octan-3-yl]-6,7-dihydro-5H-pyrrolo[2,3-c]pyridazin-3-yl}-2-methyl-1,3-benzothiazol-5-ol or 6-{7-[(1S,2S,3R,5R)-2-fluoro-8-azabicyclo[3.2.1]octan-3-yl]-6,7-dihydro-5H-pyrrolo[2,3-c]pyridazin-3-yl}-2-methyl-1,3-benzothiazol-5-ol]
< 100 | CC1(C)C[C@H](N2CCc3cc(-c4cc5cccnc5cc4O)nnc32)[C@H](F)C(C)(C)N1 [Cpd 53, 6-{7-[(3S,4S)-3-fluoro-2,2,6,6-tetramethylpiperidin-4-yl]-6,7-dihydro-5H-pyrrolo[2,3-c]pyridazin-3-yl}quinolin-7-ol]
< 100 | O=c1ccc2cc(-c3cc4c(nn3)N([C@H]3CCNC5(CC5)C3)CC4)c(O)cc2o1 [Cpd 59, 6-{7-[(7S)-4-azaspiro[2.5]octan-7-yl]-6,7-dihydro-5H-pyrrolo[2,3-c]pyridazin-3-yl}-7-hydroxy-2H-1-benzopyran-2-one]
< 100 | CCc1nc2cc(-c3cc4ccn([C@H]5CC(C)(C)NC(C)(C)[C@H]5F)c4nn3)c(O)cc2o1 [Cpd 13, 2-ethyl-5-{7-[(3S,4S)-3-fluoro-2,2,6,6-tetramethylpiperidin-4-yl]-7H-pyrrolo[2,3-c]pyridazin-3-yl}-1,3-benzoxazol-6-ol]
< 100 | CC1(C)C[C@H](N2CCc3cc(-c4cc5c(=O)ccoc5cc4O)nnc32)[C@H](F)C(C)(C)N1 [Cpd 69, 6-{7-[(3S,4S)-3-fluoro-2,2,6,6-tetramethylpiperidin-4-yl]-6,7-dihydro-5H-pyrrolo[2,3-c]pyridazin-3-yl}-7-hydroxy-4H-1-benzopyran-4-one]
< 100 | CC1(C)C[C@H](n2ccc3cc(-c4cc5ncccc5cc4O)nnc32)[C@H](F)C(C)(C)N1 [Cpd 17, 7-{7-[(3S,4S)-3-fluoro-2,2,6,6-tetramethylpiperidin-4-yl]-7H-pyrrolo[2,3-c]pyridazin-3-yl}quinolin-6-ol]
< 100 | CC1(C)C[C@H](N2CCc3cc(-c4cc5nccnc5cc4O)nnc32)[C@H](F)C(C)(C)N1 [Cpd 45, 7-{7-[(3S,4S)-3-fluoro-2,2,6,6-tetramethylpiperidin-4-yl]-6,7-dihydro-5H-pyrrolo[2,3-c]pyridazin-3-yl}quinoxalin-6-ol]
< 100 | CC1(C)C[C@H](n2ccc3cc(-c4cc5ncc(F)cc5cc4O)nnc32)[C@H](F)C(C)(C)N1 [Cpd 40, 3-fluoro-7-{7-[(3S,4S)-3-fluoro-2,2,6,6-tetramethylpiperidin-4-yl]-7H-pyrrolo[2,3-c]pyridazin-3-yl}quinolin-6-ol]
< 100 | Cc1ccc2cc(-c3cc4ccn([C@H]5CC(C)(C)NC(C)(C)[C@H]5F)c4nn3)c(O)cc2n1 [Cpd 32, 6-{7-[(3S,4S)-3-fluoro-2,2,6,6-tetramethylpiperidin-4-yl]-7H-pyrrolo[2,3-c]pyridazin-3-yl}-2-methylquinolin-7-ol]
